Source: patent publication US20150374709A1, “TETRA-SUBSTITUTED NDGA DERIVATIVES VIA ETHER BONDS AND CARBAMATE BONDS AND THEIR SYNTHESIS AND PHARMACEUTICAL USE” (ERIMOS PHARMACEUTICALS LLC, priority 2006, published 2015)

Assays:
COS-7 cells = test: MTT cytotoxicity assay in COS-7 cells (run with SEAP); type: cell-based, green monkey; details: Chlorocebus sabaeus, COS-7 test cells of the SEAP assay
Protocol: The MTT assay is a colorimetric method for determining the number of viable cells. Metabolically active cells turn the MIT reagent, (3-(4,5-dimethylthiazol-2-yl)-2,5-diphenyltetrazolium bromide, into purple-colored formazan crystals that are solubilized in dimethyl sulfoxide (DMSO). The MTT reagent is added to MTT (colorless) media. The media is added to the cells and they are incubated for 4 hours. DMSO is added to the cells and mixed. The colored solutions are then read at 540 nm and corrected at 630 nm. The IC50 is estimated by graphing the gathered data.
The cells are analyzed by the MTT assay to compare cytotoxicity to SEAP inhibition. The goal is for the drug to inhibit SEAP without being too toxic.
The MTT assay measures cellular-proliferation and is used to verify that the levels of SEAP activity are not solely due to cytotoxicity. These assays was used in screening for potential drug compound leads as antiviral agents, and particularly, anti-HIV candidates.

NSCLC cell lines = test: NCI DTP human tumor cell line screen, NSCLC panel; type: cell-based; details: NSCLC (8 cell lines)
Excerpt: (§1) The United States National Cancer Institute (NCI) provides a developmental therapeutics program (DTP) (http://dtp.nci.nih.gov/branches/btb/ivelsp.html) to screen submitted substances in support of cancer drug discovery. The In Vitro Cell Line Screening Project (IVCLSP) is a dedicated service providing direct support to the DTP anticancer drug discovery program and is designed to screen up to 3,000 compounds per year for potential anticancer activity. The operation of this screen utilizes 60 different human tumor cell lines, representing leukemia, melanoma and cancers of the lung, colon, brain, ovary, breast, prostate, and kidney. The aim is to prioritize for farther evaluation, synthetic compounds or natural product samples showing selective growth inhibition or cell killing of particular tumor cell lines. This screen is unique in that the complexity of a 60 cell line dose response produced by a given compound results in a biological response pattern which can be utilized in pattern recognition algorithms (COMPARE program. See: http://dtp.nci.nih.gov/docs/compare/compare.html). Using these algorithms, it is possible to assign a putative mechanism of action to a test compound, or to determine that the response pattern is unique and not similar to that of any of the standard prototype compounds included in the NCI database. […]

Breast Cancer cell lines = test: NCI DTP human tumor cell line screen, breast cancer panel; type: cell-based; details: Breast Cancer (6 cell lines)
Excerpt: as §1

Leukemia cell lines = test: NCI DTP human tumor cell line screen, leukemia panel; type: cell-based; details: Leukemia (6 cell lines)
Excerpt: as §1

[1] = Caco-2 monolayer bidirectional permeability; type: in vitro ADME, human; details: human
Protocol: (§2) Permeability studies were conducted by an outside contractor on behalf of the assignee of the present invention and application to determine the permeability of Compound A through Caco-2 monolayers. An important factor of oral bioavailability is the ability of e compound to be absorbed in the small intestine. Measurement of drug apparent permeability (Papp) through cell monolayers is well correlated with human intestinal absorption, and several mammalian cell lines, including Caco-2, LLC-PK1 and MDCK, are appropriate for this measurement (Artursson, P. et al., Correlation between oral drug absorption in humans and apparent drug permeability coefficients in human intestinal epithelial (Caco-2) cells. Biochem Biophys Res Comm 175:880-885 (1991); Stewart. B. H., et al., Comparison of intestinal permeabilities in multiple in vitro and in situ models: relationship to absorption in humans. Pharm Res 12:693 (1995)). P-Glycoprotein (P-gp, encoded by MDR1) is a member of the ABC transporter super family and is expressed in the human intestine, liver and other tissues. Intestinal expression of P-gp may affect the oral bioavailability of drug molecules that are substrates for this transporter. Interaction with P-gp can be studied using direct assays of drug transport in polarized cell systems such as Caco-2 cell monolayers, and human P-gp cDNA-expressing LLC-PK1 and MDCK cell monolayers. Caco-2 cells (human adenocarcinoma colonic cell line Caco-2, ATCC Cat. No. […] The cells were cultured for 21-25 days with media replacement every 3-4 days. Monolayer integrity was evaluated by pre-experimental trans-epithelial electrical resistance (TEER) measurements and post-experimental lucifer yellow A to B flux determinations. […] Receiver solution was prepared by adding 1% DMSO to transport buffer. The test solution was of Compound A in DMSO in transport buffer at a final DMSO concentration of 1%. […] The donor and receiver solutions were added to the apical or basolateral chambers of the monolayers (depending on the direction of transport to be measured). The monolayers were incubated on an orbital shaker (50 rpm) at 37° C., with ambient humidity and CO2. After 90 minutes, samples from the donor and receiver chambers were removed for analysis. […] Duplicate monolayers were used for each incubation. Samples were analyzed by LC/MS/MS using peak area ratios to an internal standard. Test article concentrations were calculated based on the peak area ratios obtained for appropriate dilutions of the donor solution containing the test article at the nominal concentration in transport buffer. Samples were diluted as appropriate to ensure that the response was within the linear range of the mass spec detector. Comparator and control samples were analyzed by liquid scintillation counting. Lucifer yellow concentrations were determined using a fluorescence plate reader.

Caco-2 cell monolayers = test: Caco-2 monolayer bidirectional permeability; type: in vitro ADME, human; details: human, Caco-2, 90 min, 1 μM, pH 7.4
Protocol: as §2

C[C@H](Cc1ccc(OCCCN2CCCCC2)c(OCCCN2CCCCC2)c1)[C@@H](C)Cc1ccc(OCCCN2CCCCC2)c(OCCCN2CCCCC2)c1 [Compound A, 1,4-bis{3,4-bis[3-(piperidin-1-yl)propoxy]phenyl}-2,3-dimethyl-(2R,3S)-butane]
IC50 (COS-7 cells): 700 to 900 nM
Mean Growth Percent at 10 μM (NSCLC cell lines): −90.92%
Mean Growth Percent at 10 μM (Breast Cancer cell lines): −67.95%
Mean Growth Percent at 10 μM (Leukemia cell lines): −81.93%
Papp A→B at 90 min, 1 μM ([1]; Caco-2, pH 7.4, BCS permeability class): 0.514 to 14.2 ×10⁻⁶ cm/s
Papp A→B at 90 min, 1 μM ([1]; Caco-2, pH 7.4, Papp A to B): 9.75 ×10⁻⁶ cm/s
Papp B→A at 90 min, 1 μM ([1]; Caco-2, pH 7.4, Papp B to A): 1.74 ×10⁻⁶ cm/s
efflux ratio at 90 min, 1 μM ([1]; Caco-2, pH 7.4, Polarization Ratio [B-A/A-B]): 0.1 to 0.2
Papp A to B (Caco-2 cell monolayers): 9.61 ×10⁻⁶ cm/s
Papp B to A (Caco-2 cell monolayers): 1.72 ×10⁻⁶ cm/s
Polarization Ratio [B-A/A-B] (Caco-2 cell monolayers): 0.18
